{"source": "paper PMC8575457", "about": "“Molecular reconstruction of recurrent evolutionary switching in olfactory receptor specificity” (eLife, 2021)", "test_in_all_cases": "single sensillum extracellular recording, Ir decoder neuron", "conditions_in_all_cases": "1% v/v odor in water, 10 ul, 500 ms pulse; agonist", "key": {"[1]": {"biological_target": "T1, DmelIr75b^DsecS1 (Drosophila melanogaster, UniProt A0A1S6EMU4, I210K/M217L/K220Q/N259S/I277M/F289L/Q291K/P473S/G492S/A520T/T523S, form not given)", "T1 construct": "gene IR75b; UAS transgene in Ir decoder neuron; with Ionotropic receptor 8a (D. melanogaster, endogenous)", "T1 sequence (A0A1S6EMU4 1-609 I210K/M217L/K220Q/N259S/I277M/F289L/Q291K/P473S/G492S/A520T/T523S)": "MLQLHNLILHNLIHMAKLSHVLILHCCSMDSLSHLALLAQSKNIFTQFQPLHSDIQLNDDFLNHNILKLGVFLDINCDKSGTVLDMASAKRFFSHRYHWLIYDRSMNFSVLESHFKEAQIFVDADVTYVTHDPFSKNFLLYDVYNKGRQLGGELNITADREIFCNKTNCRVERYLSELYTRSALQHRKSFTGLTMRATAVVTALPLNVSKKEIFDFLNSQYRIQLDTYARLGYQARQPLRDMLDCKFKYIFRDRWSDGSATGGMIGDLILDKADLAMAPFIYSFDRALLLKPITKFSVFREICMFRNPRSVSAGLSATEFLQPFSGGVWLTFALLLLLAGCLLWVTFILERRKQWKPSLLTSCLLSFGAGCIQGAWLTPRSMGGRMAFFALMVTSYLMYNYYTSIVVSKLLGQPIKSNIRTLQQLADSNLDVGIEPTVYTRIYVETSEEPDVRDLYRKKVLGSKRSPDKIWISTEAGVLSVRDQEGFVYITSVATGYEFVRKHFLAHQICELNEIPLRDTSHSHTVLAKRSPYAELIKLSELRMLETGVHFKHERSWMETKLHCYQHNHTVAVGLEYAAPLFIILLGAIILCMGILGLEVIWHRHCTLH", "T1 sequence (Q9W365 18-936 partner)": "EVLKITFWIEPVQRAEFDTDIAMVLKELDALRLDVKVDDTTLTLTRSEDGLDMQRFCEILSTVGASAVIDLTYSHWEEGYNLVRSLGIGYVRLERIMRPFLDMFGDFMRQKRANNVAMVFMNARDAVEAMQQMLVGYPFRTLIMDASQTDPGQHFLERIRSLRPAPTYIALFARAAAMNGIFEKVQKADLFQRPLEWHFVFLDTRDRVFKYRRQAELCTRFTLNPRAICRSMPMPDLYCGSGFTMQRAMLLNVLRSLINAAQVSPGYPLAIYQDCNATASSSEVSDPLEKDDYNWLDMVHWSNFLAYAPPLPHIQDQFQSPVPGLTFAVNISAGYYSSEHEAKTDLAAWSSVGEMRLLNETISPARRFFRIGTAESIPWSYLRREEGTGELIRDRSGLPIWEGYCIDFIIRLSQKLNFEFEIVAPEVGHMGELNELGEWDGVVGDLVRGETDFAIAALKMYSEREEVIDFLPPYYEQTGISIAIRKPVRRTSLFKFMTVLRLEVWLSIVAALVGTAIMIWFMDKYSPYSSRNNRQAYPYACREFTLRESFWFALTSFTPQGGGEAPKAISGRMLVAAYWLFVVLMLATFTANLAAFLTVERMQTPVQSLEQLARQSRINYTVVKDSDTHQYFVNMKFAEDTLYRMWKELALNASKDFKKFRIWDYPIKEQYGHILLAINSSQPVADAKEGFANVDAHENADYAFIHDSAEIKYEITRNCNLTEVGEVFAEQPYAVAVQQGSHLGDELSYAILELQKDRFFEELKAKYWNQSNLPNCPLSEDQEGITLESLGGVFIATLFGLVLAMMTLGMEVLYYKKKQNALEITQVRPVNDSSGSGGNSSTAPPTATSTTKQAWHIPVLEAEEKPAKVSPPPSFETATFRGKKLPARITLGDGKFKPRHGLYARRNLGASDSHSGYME", "type": "cell-based"}, "[2]": {"biological_target": "T2, DsecIr75b (Drosophila sechellia, UniProt A0A1S6EMU3)", "T2 construct": "gene IR75b; cDNA, UAS transgene expressed in D. melanogaster Ir decoder neuron with D. melanogaster Ir8a; predicted heterotetramer; with Ionotropic receptor 8a (D. melanogaster, endogenous)", "T2 sequence (A0A1S6EMU3 1-609)": "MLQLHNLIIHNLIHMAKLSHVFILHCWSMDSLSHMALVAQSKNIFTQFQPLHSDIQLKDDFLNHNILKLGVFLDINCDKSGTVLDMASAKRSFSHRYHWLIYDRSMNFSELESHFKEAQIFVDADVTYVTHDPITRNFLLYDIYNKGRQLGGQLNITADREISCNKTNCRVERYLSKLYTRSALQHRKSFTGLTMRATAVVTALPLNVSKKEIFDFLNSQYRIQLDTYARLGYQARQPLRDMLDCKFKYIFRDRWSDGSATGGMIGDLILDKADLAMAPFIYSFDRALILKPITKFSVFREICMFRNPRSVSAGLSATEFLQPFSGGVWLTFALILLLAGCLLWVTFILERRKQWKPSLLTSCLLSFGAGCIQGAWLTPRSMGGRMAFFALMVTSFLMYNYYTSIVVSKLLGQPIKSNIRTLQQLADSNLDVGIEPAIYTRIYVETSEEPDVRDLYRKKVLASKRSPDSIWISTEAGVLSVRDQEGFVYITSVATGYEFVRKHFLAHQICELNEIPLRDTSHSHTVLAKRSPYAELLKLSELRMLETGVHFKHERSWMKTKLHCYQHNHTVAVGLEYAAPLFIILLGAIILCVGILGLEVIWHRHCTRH", "T2 sequence (Q9W365 18-936 partner)": "T1 sequence (Q9W365 18-936 partner)", "type": "cell-based, Drosophila melanogaster"}, "[3]": {"biological_target": "T3, DmelIr75b^DsecS1 (Drosophila melanogaster, UniProt A0A1S6EMU4, I210K/M217L/K220Q/N259S/I277M/F289L/Q291K, form not given)", "T3 construct": "gene IR75b; UAS transgene in Ir decoder neuron; with Ionotropic receptor 8a (D. melanogaster, endogenous)", "T3 sequence (A0A1S6EMU4 1-609 I210K/M217L/K220Q/N259S/I277M/F289L/Q291K)": "T1 sequence (A0A1S6EMU4 1-609 I210K/M217L/K220Q/N259S/I277M/F289L/Q291K/P473S/G492S/A520T/T523S) with S473P, S492G, T520A, S523T", "T3 sequence (Q9W365 18-936 partner)": "T1 sequence (Q9W365 18-936 partner)", "type": "cell-based"}, "[4]": {"biological_target": "T4, DmelIr75b (Drosophila melanogaster, UniProt A0A1S6EMU4, T523S)", "T4 construct": "gene IR75b; cDNA, UAS transgene expressed in D. melanogaster Ir decoder neuron with endogenous Ir8a; predicted heterotetramer; with Ionotropic receptor 8a (D. melanogaster, endogenous)", "T4 sequence (A0A1S6EMU4 1-609 T523S)": "T1 sequence (A0A1S6EMU4 1-609 I210K/M217L/K220Q/N259S/I277M/F289L/Q291K/P473S/G492S/A520T/T523S) with K210I, L217M, Q220K, S259N, M277I, L289F, K291Q, S473P, S492G, T520A", "T4 sequence (Q9W365 18-936 partner)": "T1 sequence (Q9W365 18-936 partner)", "type": "cell-based"}}, "note": "Residue numbers refer to the chain shown, from its start."}
{"smiles": "CCCCCC(=O)O", "note": "[C6, hexanoic acid]", "values": [{"measurement": "solvent-corrected response (spikes/s)", "setting": "[1]", "result": "DmelIr75b^DsecS1,4mutS2 still has a significantly increased sensitivity to C6 when compared with DmelIr75b"}, {"measurement": "solvent-corrected response (spikes/s)", "setting": "[2]", "result": "its response to C6 is significantly smaller than that of DsecIr75b"}, {"measurement": "solvent-corrected response (spikes/s)", "setting": "[3]", "result": "DmelIr75b^DsecS1, with significantly increased responses to C6"}, {"measurement": "solvent-corrected response (spikes/s)", "setting": "[4]", "result": "mutation of the hotspot in DmelIr75b is sufficient to confer novel responses to C5 and C6"}]}
